The record followed here is US10231946B2, “Methods of treating ischemic organ damage and other disorders” (Zafgen, Inc., priority 2013, dated 2019).

SMILES strings stand for the structures.

Common to all, as to format: in vivo, human
Assay [1] concerns adiponectin. Put plainly: Plasma adiponectin (total, ALPCO ELISA; high molecular weight form) after 4 weeks of intravenous treatment in obese patients. A general note: An ELISA detects its analyte on a solid surface through an enzyme-linked reagent.
Assay [2] concerns adiponectin. Put plainly: Plasma adiponectin after twelve weeks (81 days) of treatment in obese patients. Particulars: doses 0 (placebo), 0.6, 1.2 and 2.4 mg, FIG. 2. As to the method:
(§1) Obese patients were treated in three cohorts with intravenous administration of a formulation of the compound A. The compound was intravenously administered to each patient of a cohort (except for a placebo cohort) twice weekly for 81 days. Each of patients in the three non-placebo cohorts received either 0.6 mg of compound A (cohort 1); 1.2 mg (cohort 2); or 2.4 mg (cohort 3) doses of the compound at the time of administration. The trial was conducted under the appropriate government and medical supervision.

In a further assay the test system is sRAGE. Put plainly: sRAGE study in obese patients treated twice weekly for 81 days. The settings on record: 0.6, 1.2 or 2.4 mg twice weekly for 81 days, FIG. 1. As for the experimental part: as §1

Take `CO[C@@H]1[C@H](OC(=O)C=Cc2ccc(OCCN(C)C)cc2)CC[C@]2(CO2)[C@H]1[C@@]1(C)O[C@@H]1CC=C(C)C` [Compound A, O-(4-dimethylaminoethoxycinnamoyl)fumagillol]: the total plasma adiponectin result in the assay on adiponectin [1] (after 4 weeks of intravenous treatment versus placebo, ALPCO ELISA, FIG. 3) is recorded as “increases in total plasma adiponectin”. Besides, in the assay on adiponectin [1] (after 4 weeks of intravenous treatment with 1.9 mg versus placebo, FIG. 4), the “high molecular weight form of adiponectin” value is recorded as “increases in the high molecular weight form of adiponectin”. The plasma adiponectin entry in the assay on adiponectin [2] is reported as “dose proportional increases”.

In the case of `CO[C@@H]1[C@H](OC(=O)/C=C/c2ccc(OCCN(C)C)cc2)CC[C@]2(CO2)[C@H]1[C@@]1(C)O[C@@H]1CC=C(C)C.O=C(O)C(=O)O` [6-O-(4-dimethylaminoethoxy)cinnamoyl fumagillol oxalate], the “levels of sRAGE in patients' serum” value in the assay with sRAGE is given as “increase”.
